This is an account of results in patent US20240300972A1, “THIOPHENE-BASED LIPIDS” (Oregon State University, priority 2021, published 2024).

For data set [1], the system named is HeLa (human cervical epithelial cells). Description: In vitro transfection efficiency of FLuc mRNA LNPs, ONE-Glo Luciferase Assay. The data set is classed as cell-based. As to conditions: for dose response of transfection efficiency: 50 vs 200 ng/well; for transfection profile and cytotoxicity: compared to negative control (PBS) and positive control (MC3 LNPs at the same dose). How it is done: (§1) Mammalian cell lines used to measure cytotoxicity and transfection efficiency include HeLa (human cervical epithelial cells), HEK293T/17 (human embryonic kidney cells), HepG2 (human liver epithelial-like cells), and Jurkat E6-1 (human T-lymphocytes). The cells were seeded at 4000 cells/well in a 96-well plate and incubated for 24 hours. The next day, the LNPs of interest were diluted with 1×PBS to 50 ng/ul and administered at predetermined doses to the cells. The cell viability and transfection efficiency were evaluated on the following day (after 24-hour incubation of cells with LNPs). The cell viability was measured with Promega CellTiter-Fluor Cell Viability Assay, and the transfection efficiency was measured with Promega ONE-Glo Luciferase Assay System using Tecan Infinite M200 PRO multimode plate reader instrument. The dose range varied from 50 to 200 ng of nucleic acid per well.

Another data set deals with BALB/c mice. Description: In vivo bioluminescence imaging after administration of Fluc mRNA nanoparticle formulations. Set-up: species or system mouse. The conditions noted are these: for transfection after intramuscular administration: flanks of mice; for luminescent signals detected by in vivo imaging / pattern / origin of luminescence (transfected tissues) / degree of transfection (light flux) in the tested series: intravenous administration; for luminescent signals detected by in vivo imaging / degree of transfection (light flux) in the tested series: mice; for pattern / origin of luminescence (transfected tissues): in vivo and ex vivo organs; for light flux compared to the negative control: normal (50:10:38.5:1.5) and highly PEGylated (50:7:38.5:4.5) formulations. On the procedure: A nanoparticle formulation including firefly luciferase (Fluc) mRNA was administered to BALB/c mice by intravenous, intramuscular, intravitreal, or subretinal injection. The intravenous injection was performed by tail-vein or retro-orbital injection. Mice that received a dose of nanoparticle formulation were housed until bioluminescence imaging. Bioluminescence imaging is a method to quantify luminescent signals from the subject. Prior to bioluminescence imaging, the mice were sedated with inhalation of isoflurane. The sedated mice received a dose of D-luciferin salt, which is a substrate of firefly luciferase, by intraperitoneal injection at 150 mg/kg 10 minutes prior to bioluminescence imaging. Bioluminescence imaging was performed on the mice with various exposure times ranging from 1 to 300 seconds using IVIS Lumina XRMS from PerkinElmer. To evaluate the protein expression at an organ level, internal organs of a mouse, such as the liver, lungs, kidneys, spleen, lymph nodes, and heart, and external tissues of mouse, such as muscle tissues close to a site of injection, were excised.

The subject of data set [2] is HEK293T/17 (human embryonic kidney cells). Description: In vitro transfection efficiency of FLuc mRNA LNPs, ONE-Glo Luciferase Assay. Type of data set: cell-based. The conditions noted are these: HEK293T/17, 200 ng (identical dose). On the procedure: as §1
Data set [3] deals with HepG2 (human liver epithelial-like cells). The data set is described as above. Type of data set: cell-based. As to conditions: HepG2, 200 ng (identical dose). On the procedure: as §1

For the compound “6-(3-(dimethylamino)propanoyl)-2-((9Z,12Z)-octadeca-9,12-dienamido)-N-((9Z,12Z)-octadeca-9,12-dienoyl)-N-octadecyl-4,5,6,7-tetrahydrothieno[2,3-c]pyridine-3- [26a]”, the “dose response of transfection efficiency” value in data set [1] (HeLa) is reported as “greater at 200 ng/well than at 50 ng/well”. In addition, in the data set with BALB/c mice, the “transfection after intramuscular administration” value was “successful and comparable transfection of local tissues”; the “luminescent signals detected by in vivo imaging” value (“luminescent signals detected” below) is reported as “successful transfection”; the “pattern / origin of luminescence (transfected tissues)” value (from here on “pattern / origin of luminescence”) is “local transfection”. Moreover, the “light flux compared to the negative control” value with BALB/c mice (subretinal administration) is reported as “greater significant light flux”.

In the case of `CCCCC/C=C\C/C=C\CCCCCCCC(=O)N(C(=O)CCCCCCC/C=C\C/C=C\CCCCC)c1sc2c(c1C(=O)OCC)CCN(C(=O)CCCN(C)C)C2` [19da, ethyl 6-(4-(dimethylamino)butanoyl)-2-((9Z,12Z)—N-((9Z,12Z)-octadeca-9,12-dienoyl)octadeca-9,12-dienamido)-4,5,6,7-tetrahydrothieno[2,3-c]pyridine-3-carboxylate], in data set [1] (HeLa cell line, 200 ng treatment), the “improvement compared to the positive control” value is ~5 fold. Besides, in data set [1] (HeLa), the “dose response of transfection efficiency” value was “greater at 200 ng/well than at 50 ng/well”; the “transfection profile and cytotoxicity” value is “favorable transfection profile and cytotoxicity”. In addition, the “decline compared to the positive control” value in data set [2] is recorded as 3 fold. The “decline compared to the positive control” value in data set [3] was 3 fold. Further, in the data set on BALB/c mice, the “transfection after intramuscular administration” value is “successful and comparable transfection of local tissues”; the “luminescent signals detected” value was “successful transfection”; the “pattern / origin of luminescence” value was “local transfection”. The “light flux compared to the negative control” value with BALB/c mice (subretinal administration) is “greater significant light flux”.

On to `CCCCC/C=C\C/C=C\CCCCCCCC(=O)Nc1sc2c(c1C(=O)N(CCCCCCCCCCCCCCCCCC)C(=O)CCCCCCC/C=C\C/C=C\CCCCC)CCN(C(=O)CCCN(C)C)C2` [26b, 6-(4-(dimethylamino)butanoyl)-2-((9Z,12Z)-octadeca-9,12-dienamido)-N-((9Z,12Z)-octadeca-9,12-dienoyl)-N-octadecyl-4,5,6,7-tetrahydrothieno[2,3-c]pyridine-3-carboxamide], for which, in data set [1] (HeLa), the “dose response of transfection efficiency” value was “greater at 200 ng/well than at 50 ng/well”; the “transfection profile and cytotoxicity” value is “favorable transfection profile and cytotoxicity”. In addition, in the data set on BALB/c mice, the “luminescent signals detected” value is recorded as “successful transfection” and the “pattern / origin of luminescence” value is on record as “local transfection”. In addition, the “light flux compared to the negative control” value in the data set with BALB/c mice (subretinal administration) was “greater significant light flux”. Besides, the luciferase signal entry with BALB/c mice (subretinal administration, “normal” formulation (1.5% PEG)) is recorded as “not detected”.

Consider `CCCCC/C=C\C/C=C\CCCCCCCC(=O)Nc1sc2c(c1C(=O)NCCCN(C)C)CCN(C(=O)CCCCCCC/C=C\C/C=C\CCCCC)C2` [29d, N-(3-(dimethylamino)propyl)-2-((9Z,12Z)-octadeca-9,12-dienamido)-6-((9Z,12Z)-octadeca-9,12-dienoyl)-4,5,6,7-tetrahydrothieno[2,3-c]pyridine-3-carboxamide], for which, in data set [1] (HeLa), the “dose response of transfection efficiency” value is “inverse dose response”; the “transfection profile and cytotoxicity” value is “favorable transfection profile and cytotoxicity”. In addition, in the data set with BALB/c mice, the “luminescent signals detected” value is on record as “successful transfection”; the “pattern / origin of luminescence” value is “spleen and lungs”.

As for `CCCCC/C=C\C/C=C\CCCCCCCCOC(=O)c1c(NC(=O)CCCCCCCCCCCCCCCCC)sc2c1CCNC2` [34a, (9Z,12Z)-octadeca-9,12-dien-1-yl 2-stearamido-4,5,6,7-tetrahydrothieno[2,3-c]pyridine-3-carboxylate], in data set [1] (HeLa), the “transfection profile and cytotoxicity” value was “favorable transfection profile and cytotoxicity”. In addition, in the data set on BALB/c mice, the “degree of transfection (light flux) in the tested series” value is “highest light flux”; the “luminescent signals detected” value is given as “successful transfection”; the “pattern / origin of luminescence” value was “liver and spleen”.

With `CCCCC/C=C\C/C=C\CCCCCCCCOC(=O)c1c(NC(=O)CCCCCCC/C=C\C/C=C\CCCCC)sc2c1CCNC2` [34b, (9Z,12Z)-octadeca-9,12-dien-1-yl 2-((9Z,12Z)-octadeca-9,12-dienamido)-4,5,6,7-tetrahydrothieno[2,3-c]pyridine-3-carboxylate], the “transfection profile and cytotoxicity” value in data set [1] (HeLa) is “favorable transfection profile and cytotoxicity”. Also, in the data set with BALB/c mice, the “degree of transfection (light flux) in the tested series” value is on record as “highest light flux” and the “luminescent signals detected” value is on record as “successful transfection”.

With `CCCCC/C=C\C/C=C\CCCCCCCCOC(=O)c1c(NC(=O)CCCCCCC/C=C\C/C=C\CCCCC)sc2c1CCN(C(=O)CCCN(C)C)C2` [35a, (9Z,12Z)-octadeca-9,12-dien-1-yl 6-(4-(dimethylamino)butanoyl)-2-((9Z,12Z)-octadeca-9,12-dienamido)-4,5,6,7-tetrahydrothieno[2,3-c]pyridine-3-carboxylate], the “decrease in transfection efficiency vs positive control” value in data set [1] (HeLa, MC3 LNPs at the same dose) is reported as “up to 4 ×fold”. The “transfection profile and cytotoxicity” value in data set [1] (HeLa) is “favorable transfection profile and cytotoxicity”. Moreover, the “luminescent signals detected” value in the data set with BALB/c mice is recorded as “successful transfection”.
